Key:
Tetranychus urticae = Tetranychus urticae spray test, OP-resistant (TETRUR); assay type: in vivo; conditions: after 6 days; for pest or weed control at 500 g/ha: Tetranychus urticae, 144 h, read-out: efficacy
Protocol: Tetranychus urticae—Spray Test, OP-Resistant (TETRUR)
• Solvent: 78.0 parts by weight of acetone • 1.5 parts by weight of dimethylformamide • Emulsifier: 0.5 part by weight of alkylaryl polyglycol ether
To produce an appropriate active ingredient formulation, 1 part by weight of active ingredient is mixed with the specified amounts of solvent and emulsifier, and the concentrate is diluted to the desired concentration with emulsifier-containing water.
Discs of bean leaves (Phaseolus vulgaris) infested by all stages of the greenhouse red spider mite (Tetranychus urticae) are sprayed with an active ingredient formulation of the desired concentration.
After 6 days, the efficacy in % is determined 100% means that all the spider mites have been killed; 0% means that none of the spider mites have been killed.

[1] = log P by HPLC (OECD Guideline 117), method [a] acidic range; assay type: physicochemical; conditions: for logP[a]: HPLC, method [a] acidic range; for chromatographic logP: reversed-phase C18 HPLC column, acidic range
Protocol: (§1) The log P values were determined analogously to OECD Guideline 117 (EC Directive 92/69/EEC) by HPLC (high-performance liquid chromatography) using reversed-phase columns (C 18), by the following methods:
[a] The LC-MS determination in the acidic range is effected at pH 2.7 with 0.1% aqueous formic acid and acetonitrile (contains 0.1% formic acid) as eluents; linear gradient from 10% acetonitrile to 95% acetonitrile.

[2] = log P by HPLC (OECD Guideline 117), method [b] neutral range; assay type: physicochemical; conditions: HPLC; for logP[b]: method [b] neutral range; for chromatographic logP: reversed-phase C18 HPLC column, neutral range, pH 7.8
Protocol: as §1
[b] The LC-MS determination in the neutral range is effected at pH 7.8 with 0.001 molar aqueous ammonium hydrogencarbonate solution and acetonitrile as eluents; linear gradient from 10% acetonitrile to 95% acetonitrile.

[3] = pH 2.7, HPLC method [a], read-out: logP[a]
[4] = pH 2.7, HPLC, pH 2.7, read-out: log P[a]

| logP[a] [1] | logP[b] [2] | chromatographic logP [1, 3] | chromatographic logP [1, 4] | chromatographic logP [2] | Structure (SMILES) | efficacy (Tetranychus urticae; application rate of 500 g/ha) | pest or weed control at 500 g/ha (Tetranychus urticae; application rate of 500 g/ha) | efficacy (Tetranychus urticae; application rate of 100 g/ha) |
| --- | --- | --- | --- | --- | --- | --- | --- | --- |
| 2.18 | 2.13 | – | – | – | Cc1cc(F)c(-n2nc(C)n(N)c2=O)cc1SCC(F)(F)F [Example 200] | 100% | – | – |
| 4.22 | 4.11 | – | – | – | Cc1cc(F)c(-n2nc(C(F)(F)F)n(CC(F)(F)F)c2=O)cc1SCC(F)(F)F [Example 55] | 90% | – | – |
| 2.76 | 2.72 | – | – | – | CCSc1nn(-c2cc([S+]([O-])CC(F)(F)F)c(C)cc2F)c(=O)n1CC (racemic) [Example 293] | 90% | – | – |
| 2.91 | 2.88 | – | – | – | CCCCOC1=CC(=O)N(c2cc([S+]([O-])CC(F)(F)F)c(C)cc2F)C1 (stereo not shown) [Example 326] | 90% | – | – |
| 3.24 | 3.18 | – | – | – | CCc1nn(-c2cc(SCC(F)(F)F)c(C)cc2F)c(=O)n1C1CC1 [Example 77] | 100% | – | – |
| 3.27 | 3.26 | – | – | – | O=c1n(-c2cc([S+]([O-])CC(F)(F)F)c(Br)cc2F)nc(OCC(F)(F)F)n1C1CC1 (racemic) [Example 383] | 100% | – | – |
| – | – | 2.55 | 2.55 | 2.51 | CC[S+]([O-])c1nn(-c2cc(SCC(F)(F)F)c(C)cc2F)c(=O)n1C (stereo not shown) [Example 243, 5-(Ethylsulphinyl)-2-{2-fluoro-4-methyl-5-[(2,2,2-trifluoroethyl)sulphanyl]phenyl}-4-methyl-2,4-dihydro-3H-1,2,4-triazol-3-one] | – | 100% | – |
| – | – | 3.51 | 3.51 | 3.44 | CCSc1nn(-c2cc(SCC(F)(F)F)c(C)cc2F)c(=O)n1C [Example 273, 5-(Ethylsulphanyl)-2-{2-fluoro-4-methyl-5-[(2,2,2-trifluoroethyl)sulphanyl]phenyl}-4-methyl-2,4-dihydro-3H-1,2,4-triazol-3-one] | – | 100% | – |
| 3.99 | 3.90 | – | – | – | Cc1cc(F)c(-n2nc(OCC3CC3)n(C3CC3)c2=O)cc1SCC(F)(F)F [Example 134] | 90% | – | – |
| 2.88 | 2.77 | – | – | – | CCn1c(C(F)(F)F)nn(-c2cc([S+]([O-])CC(F)(F)F)c(C)cc2F)c1=O (stereo not shown) [Example 58] | 90% | – | – |
| – | – | 4.18 | 4.18 | 4.2 | Cc1cc(F)c(-n2nc(C3CCCC3)n(C3CC3)c2=O)cc1SCC(F)(F)F [Example 358, 5-Cyclopentyl-4-cyclopropyl-2-{2-fluoro-4-methyl-5-[(2,2,2-trifluoroethyl)sulphanyl]phenyl}-2,4-dihydro-3H-1,2,4-triazol-3-one] | – | 100% | – |
| 2.94 | 2.85 | – | – | – | Cc1cc(F)c(-n2nc([S+]([O-])CC3CC3)n(C)c2=O)cc1SCC(F)(F)F (stereo not shown) [Example 247] | 100% | – | – |
| 2.93 | 2.86 | – | – | – | CCCOc1nn(-c2ccc(C)c([S+]([O-])CC(F)(F)F)c2)c(=O)n1C (stereo not shown) [Example 133] | 90% | – | – |
| 3.00 | 2.96 | – | – | – | C=CCn1c(C(F)(F)F)nn(-c2cc([S+]([O-])CC(F)(F)F)c(C)cc2F)c1=O (stereo not shown) [Example 364] | 90% | – | – |
| 3.59 | 3.52 | – | – | – | Cc1cc(F)c(-n2nc(C(C)C)n(C3CC3)c2=O)cc1SCC(F)(F)F [Example 44] | 100% | – | – |

Second part, the compound before the results:

| Structure (SMILES) | logP[a] [1] | logP[b] [2] | chromatographic logP [1, 3] | chromatographic logP [1, 4] | chromatographic logP [2] | efficacy (Tetranychus urticae; application rate of 500 g/ha) | pest or weed control at 500 g/ha (Tetranychus urticae; application rate of 500 g/ha) | efficacy (Tetranychus urticae; application rate of 100 g/ha) |
| --- | --- | --- | --- | --- | --- | --- | --- | --- |
| CC[S+]([O-])c1nn(-c2cc(SCC(F)(F)F)c(C)cc2F)c(=O)n1C1CC1 (stereo not shown) [Example 234] | 2.68 | 2.65 | – | – | – | 100% | – | – |
| Cc1cc(C)c([S+]([O-])CC(F)(F)F)cc1-n1nnn(C(C)C)c1=O (racemic) [Example 300] | 2.63 | 2.61 | – | – | – | 100% | – | – |
| Cc1cc(F)c(-n2nc(SC(C)C)n(C3CC3)c2=O)cc1[S+]([O-])CC(F)(F)F (stereo not shown) [Example 267] | 3.19 | 3.12 | – | – | – | 100% | – | – |
| C=CCn1c(SC)nn(-c2cc(SCC(F)(F)F)c(C)cc2F)c1=O [Example 271] | 3.61 | 3.58 | – | – | – | 100% | – | – |
| Cc1cc(F)c(-n2nc(OCC(C)(C)C)n(C3CC3)c2=O)cc1SCC(F)(F)F [Example 386] | 4.77 | 4.71 | – | – | – | 100% | – | – |
| Cc1cc(F)c(-n2nc(SCC(F)(F)F)n(C3CC3)c2=O)cc1[S+]([O-])CC(F)(F)F (stereo not shown) [Example 255] | 2.93 | 2.89 | – | – | – | 100% | – | – |
| CCn1c(C(F)(F)F)nn(-c2ccc(C)c(SCC(F)(F)F)c2)c1=O [Example 54] | 4.38 | 4.32 | – | – | – | 90% | – | – |
| COc1ccccc1-c1nn(-c2cc(SCC(F)(F)F)c(C)cc2F)c(=O)n1C1CC1 [Example 366] | 3.77 | 3.71 | – | – | – | 100% | – | – |
| O=c1n(-c2cc([S+]([O-])CC(F)(F)F)c(Cl)cc2F)nc(OCC(F)(F)F)n1C1CC1 (racemic) [Example 382] | 3.22 | 3.13 | – | – | – | 100% | – | – |
| Cc1cc(F)c(-n2nc([S+](C)[O-])n(C)c2=O)cc1[S+]([O-])CC(F)(F)F (stereo not shown) [Example 233] | 1.47 | 1.44 | – | – | – | 100% | – | – |
| Cc1cc(F)c(-n2nc(C)n(-c3ccccc3)c2=O)cc1[S+]([O-])CC(F)(F)F (racemic) [Example 356] | 2.38 | 2.35 | – | – | – | 100% | – | – |
| CCCCOc1nn(-c2cc(SCC(F)(F)F)c(C)cc2F)c(=O)n1C [Example 128] | 4.11 | 3.95 | – | – | – | 90% | – | – |
| Cc1ccc(-n2nc(C(F)(F)F)n(N)c2=O)cc1SCC(F)(F)F [Example 212] | 3.38 | 3.37 | – | – | – | 90% | – | – |
| COn1c(C)nn(-c2cc([S+]([O-])CC(F)(F)F)c(C)cc2F)c1=O (stereo not shown) [Example 226] | 1.76 | 1.74 | – | – | – | 100% | – | – |
| COCCn1c(C(F)(F)F)nn(-c2cc(SCC(F)(F)F)c(C)cc2F)c1=O [Example 89] | 3.80 | 3.73 | – | – | – | 100% | – | – |
| CCOCc1nn(-c2cc([S+]([O-])CC(F)(F)F)c(C)cc2F)c(=O)n1C1CC1 (racemic) [Example 74] | 2.31 | 2.25 | – | – | – | 100% | – | – |
| Cc1nn(-c2cc(SCC(F)(F)F)c(C)cc2F)c(=O)o1 [Example 448, 3-{2-Fluoro-4-methyl-5-[(2,2,2-trifluoroethyl)sulphanyl]phenyl}-5-methyl-1,3,4-oxadiazol-2(3H)-one] | – | – | 3.11 | 3.11 | 3.09 | – | 100% | – |
| COC1=CC(=O)N(c2cc([S+]([O-])CC(F)(F)F)c(Cl)cc2F)C1 (stereo not shown) [Example 324] | 2.13 | 2.11 | – | – | – | 100% | – | – |
| CCn1c([S+]([O-])CC)nn(-c2cc([S+]([O-])CC(F)(F)F)c(C)cc2F)c1=O (stereo not shown) [Example 252] | 1.90 | 1.87 | – | – | – | 100% | – | – |
| Cc1cc(F)c(-n2nc(C3CCC3)n(C3CC3)c2=O)cc1SCC(F)(F)F [Example 87] | 3.85 | 3.77 | – | – | – | 100% | – | – |
| CCOc1nn(-c2cc(SCC(F)(F)F)c(C)cc2F)c(=O)n1C1CC1 [Example 120] | 3.58 | 3.44 | – | – | – | 100% | – | – |
| CC(C)(C)COc1nn(-c2cc([S+]([O-])CC(F)(F)F)c(Cl)cc2F)c(=O)n1C1CC1 (stereo not shown) [Example 402] | 4.13 | 3.98 | – | – | – | 90% | – | – |
| Cc1cc(F)c(-n2nc(C)n(N(C)C)c2=O)cc1SCC(F)(F)F [Example 201] | 3.17 | 3.14 | – | – | – | 100% | – | – |
| C=CCn1c(SCC)nn(-c2cc([S+]([O-])CC(F)(F)F)c(C)cc2F)c1=O (stereo not shown) [Example 431] | 2.83 | 2.92 | – | – | – | 90% | – | – |
| COn1c(C(C)C)nn(-c2cc(SCC(F)(F)F)c(C)cc2F)c1=O [Example 418] | 3.52 | 3.49 | – | – | – | 90% | – | – |
| COc1nn(-c2cc(SCC(F)(F)F)c(Br)cc2F)c(=O)n1C [Example 175] | 3.04 | 2.98 | – | – | – | – | – | 100% |
| Cc1cc(F)c(-n2nc(C(C)C)n(C3CC3)c2=S)cc1SCC(F)(F)F [Example 494] | 4.1 | 4.02 | – | – | – | 100% | – | – |

Source: patent publication US9981940B2, “Aryl sulfide derivatives and aryl sulfoxide derivatives as acaricides and insecticides” (BAYER CROPSCIENCE AKTIENGESELLSCHAFT, priority 2013, dated 2018)
